# In PMC6270409, “Synthesis and Anti-Influenza Virus Activities of a Novel Class of Gastrodin Derivatives” (Molecules, 2013):
# Read-outs that look alike come from different tables or passages of the source. Marks after values point to notes of the source that are not given here.
# Assays:
# [1] = tested on: MDCK cells; test: Cytotoxicity assay in MDCK cells monitored by CPE; settings: 48 h, Table 1
# [2] = tested on: influenza A/Hanfang/359/95(H3N2); test: microbe, parasite or virus in culture; format: cell-based, influenza A virus
# [3] = tested on: influenza A/FM/1/47(H1N1); test: microbe, parasite or virus in culture; format: cell-based, influenza A virus
# [4] = tested on: influenza virus M2 protein expression; format: cell-based, influenza virus A/Wuhan/359/95
# [5] = tested on: influenza B (B/Jifang/13/97); test: Anti-influenza CPE assay in MDCK cells, oseltamivir-null B/Jifang/13/97; format: cell-based; settings: Influenza B virus, read-out: IC50 B/Jifang/13/97
# [6] = tested on: viral hemagglutinin; test: Hemagglutination inhibition assay; format: biochemical, influenza virus; settings: 2 fold serial diluted from 40 μg/mL, chicken erythrocytes
# [7] = tested on: neuraminidase of the two influenza virus A strain; test: Neuraminidase inhibition assay (MUNANA), two influenza A strains; format: biochemical; settings: MUNANA substrate
# [8] = tested on: influenza A/FM/1/47-MA (H1N1) virus; format: in vivo, mice; settings: for numbers of surviving animals: survivors/total; for Mean lung score / Lung consolidation: day 6 post-virus exposure; for Lung consolidation: score 0-4; for Mean day to death: b.i.d x 7, mean survival time of mice dying on or before day 14
molecule,measurement,setting,value
OCc1ccc(O[C@@H]2O[C@H](CO)[C@@H](O)[C@H](O)[C@H]2O)cc1 [Gastrodin],TC50,[1],>698.62 µM
same,IC50,"[2]; Influenza A virus, H3N2, MDCK",161 µM
same,IC50,"[3]; Influenza A virus, H1N1, MDCK",> 232 µM
"OCc1ccc(F)c(O[C@@H]2O[C@H](CO)[C@@H](O)[C@H](O)[C@H]2O)c1 [Compound 14a, (2S,3R,4S,5S,6R)-2-(2-Fluoro-5-(hydroxymethyl)phenoxy)-6-(hydroxymethyl)-tetrahydro-2H-pyran-3,4,5-triol]",TC50,[1],>657.31 µM
same,IC50,"[2]; Influenza A virus, H3N2, MDCK",> 657 µM
same,IC50,"[3]; Influenza A virus, H1N1, MDCK",> 657 µM
"COC(=O)c1ccc(F)c(O[C@@H]2O[C@H](COC(C)=O)[C@@H](OC(C)=O)[C@H](OC(C)=O)[C@H]2OC(C)=O)c1 [Compound 1a, Methyl 4-fluoro-3-((2S,3R,4S,5R,6R)-3,4,5-triacetoxy-6-(acetoxymethyl)-tetrahydro-2H-pyran-2-yloxy)benzoate]",effect on influenza virus M2 protein expression,"[4]; MDCK cells infected with A/Wuhan/359/95, 300TCID50, 24 hours post infection",no effect
same,IC50,[5],33 µM
same,IC50,"[2]; Influenza A virus, H3N2, MDCK",44.4 µM
same,inhibitory effect on hemagglutination,[6],did not show an inhibitory effect
same,IC50 on neuraminidase,[7],> 40 µg/mL
same,numbers of surviving animals,[8]; 40 mg/kg/day intragastrically,1/10
same,Mean lung score,[8]; 40 mg/kg/day po,2.61 ± 0.85
same,Lung consolidation,[8]; 40 mg/kg/day po,3.56
same,numbers of surviving animals,[8]; 80 mg/kg/day intragastrically,6/10
same,Mean day to death,[8]; 80 mg/kg/day po,11.3 days
same,Mean lung score,[8]; 80 mg/kg/day po,1.82 ± 0.82
same,Lung consolidation,[8]; 80 mg/kg/day po,2.25
same,IC50,[3],34.5 µM
same,IC50,"[3]; Influenza A virus, H1N1, MDCK",34.4 µM
"COC(=O)c1c(OC)cc(O[C@@H]2O[C@H](COC(C)=O)[C@@H](OC(C)=O)[C@H](OC(C)=O)[C@H]2OC(C)=O)cc1OC [Compound 2a, Methyl 2,6-dimethoxy-4-((2S,3R,4S,5R,6R)-3,4,5-triacetoxy-6-(acetoxymethyl)-tetrahydro-2H-pyran-2-yloxy)benzoate]",IC50,[5],6.25 µM
same,IC50,"[2]; Influenza A virus, H3N2, MDCK",> 13.7 µM
same,IC50,"[3]; Influenza A virus, H1N1, MDCK",11.6 µM
same,melting point,,121 to 123 °C
"CC(=O)OC[C@H]1O[C@@H](Oc2ccncc2)[C@H](OC(C)=O)[C@@H](OC(C)=O)[C@@H]1OC(C)=O [Compound 11a, (2R,3R,4S,5R,6S)-2-(Acetoxymethyl)-6-(pyridin-4-yloxy)-tetrahydro-2H-pyran-3,4,5-triyl triacetate]",IC50,[5],> 52.2 µM
same,IC50,"[2]; Influenza A virus, H3N2, MDCK",40.5 µM
same,IC50,"[3]; Influenza A virus, H1N1, MDCK",52.2 µM
same,melting point,,132 to 134 °C
"CC(=O)OC[C@H]1O[C@@H](Oc2ncccc2F)[C@H](OC(C)=O)[C@@H](OC(C)=O)[C@@H]1OC(C)=O [Compound 12a, (2R,3R,4S,5R,6S)-2-(Acetoxymethyl)-6-(3-fluoropyridin-2-yloxy)-tetrahydro-2H-pyran-3,4,5-triyl triacetate]",IC50,[5],> 50.1 µM
same,IC50,"[2]; Influenza A virus, H3N2, MDCK",> 50.1 µM
same,IC50,"[3]; Influenza A virus, H1N1, MDCK",25.2 µM
same,melting point,,140 to 142 °C
"Ethyl 3,5-dichloro-4-((2S,3R,4S,5R,6R)-3,4,5-triacetoxy-6-(acetoxymethyl)-tetrahydro-2H-pyran-2-yloxy)benzoate [Compound 3a]",TC50,[1],>362.77 µM
same,IC50,[2],> 363 µM
same,IC50,[3],> 363 µM
"NC(=O)c1ncn([C@@H]2O[C@H](CO)[C@@H](O)[C@H]2O)n1 [Ribavirin, reference compound]",effect on influenza virus M2 protein expression,[4],significant inhibitory effect
same,IC50,[5],11.4 µM
same,influenza virus induced cytopathic effect,"[2]; 10 μg/mL, strain not given",completely inhibits
same,IC50,"[2]; Influenza A virus, H3N2, MDCK",11.9 µM
same,Mean day to death,[8]; 100 mg/kg/day po,14.0 * days
same,Mean lung score,[8]; 100 mg/kg/day po,1.31 ± 0.34
same,Lung consolidation,[8]; 100 mg/kg/day po,0.50 *
same,% Survivors,"[8]; mouse, in vivo",100 (10/10) %
same,IC50,"[3]; Influenza A virus, H1N1, MDCK",13.5 µM
"CC(=O)OC[C@H]1O[C@@H](Oc2cccc(F)c2C)[C@H](OC(C)=O)[C@@H](OC(C)=O)[C@@H]1OC(C)=O [Compound 10a, (2R,3R,4S,5R,6S)-2-(Acetoxymethyl)-6-(3-fluoro-2-methylphenoxy)-tetrahydro-2H-pyran-3,4,5-triyl triacetate]",IC50,"[2]; Influenza A virus, H3N2, MDCK",> 146 µM
same,IC50,"[3]; Influenza A virus, H1N1, MDCK",> 146 µM
same,melting point,,127 to 129 °C
"COC(=O)c1ccc(F)cc1O[C@@H]1O[C@H](COC(C)=O)[C@H](OC(C)=O)[C@H](OC(C)=O)[C@H]1OC(C)=O [Compound 8b, Methyl 4-fluoro-2-((2S,3R,4S,5S,6R)-3,4,5-triacetoxy-6-(acetoxymethyl)-tetrahydro-2H-pyran-2-yloxy)benzoate]",TC50,[1],>399.66 µM
same,IC50,"[2]; Influenza A virus, H3N2, MDCK",> 400 µM
same,IC50,"[3]; Influenza A virus, H1N1, MDCK",> 400 µM
same,melting point,,136 to 138 °C
"Methyl 4-((2S,3R,4S,5R,6R)-3,4,5-triacetoxy-6-(acetoxymethyl)-tetrahydro-2H-pyran-2-yloxy)benzoate [Compound 5a]",TC50,[1],232.53 µM
same,IC50,[2],93.6 µM
same,IC50,[3],> 134 µM
"COC(=O)c1c(F)cccc1O[C@@H]1O[C@H](COC(C)=O)[C@@H](OC(C)=O)[C@H](OC(C)=O)[C@H]1OC(C)=O [Compound 9a, Methyl 2-fluoro-6-((2S,3R,4S,5R,6R)-3,4,5-triacetoxy-6-(acetoxymethyl)-tetrahydro-2H-pyran-2-yloxy)benzoate]",IC50,[5],> 44.4 µM
same,IC50,"[2]; Influenza A virus, H3N2, MDCK",> 44.4 µM
same,IC50,"[3]; Influenza A virus, H1N1, MDCK",34.5 µM
same,melting point,,130 to 132 °C
"COC(=O)c1ccc(O[C@@H]2O[C@H](COC(C)=O)[C@H](OC(C)=O)[C@H](OC(C)=O)[C@H]2OC(C)=O)c(F)c1 [Compound 7b, Methyl 3-fluoro-4-((2S,3R,4S,5S,6R)-3,4,5-triacetoxy-6-(acetoxymethyl)-tetrahydro-2H-pyran-2-yloxy)benzoate]",IC50,"[2]; Influenza A virus, H3N2, MDCK",> 133 µM
same,IC50,"[3]; Influenza A virus, H1N1, MDCK",133 µM
same,melting point,,121 to 123 °C
NC12CC3CC(CC(C3)C1)C2 [Amantadine],effect on influenza virus M2 protein expression,[4],significantly inhibited
"COC(=O)c1ccc(N)c(O[C@@H]2O[C@H](COC(C)=O)[C@@H](OC(C)=O)[C@H](OC(C)=O)[C@H]2OC(C)=O)c1 [Compound 4a, Methyl 4-amino-3-((2S,3R,4S,5R,6R)-3,4,5-triacetoxy-6-(acetoxymethyl)-tetrahydro-2H-pyran-2-yloxy)benzoate]",IC50,"[2]; Influenza A virus, H3N2, MDCK",> 134 µM
same,IC50,"[3]; Influenza A virus, H1N1, MDCK",119 µM
same,melting point,,126 to 128 °C
"COC(=O)c1cccc(O[C@@H]2O[C@H](COC(C)=O)[C@H](OC(C)=O)[C@H](OC(C)=O)[C@H]2OC(C)=O)c1 [Compound 6b, Methyl 3-((2S,3R,4S,5S,6R)-3,4,5-triacetoxy-6-(acetoxymethyl)-tetrahydro-2H-pyran-2-yloxy)benzoate]",IC50,"[2]; Influenza A virus, H3N2, MDCK",> 138 µM
same,IC50,"[3]; Influenza A virus, H1N1, MDCK",> 138 µM
same,melting point,,154 to 156 °C
"Ethyl 4-fluoro-2-((2S,3R,4S,5R,6R)-3,4,5-triacetoxy-6-(acetoxymethyl)-tetrahydro-2H-pyran-2-yloxy)-benzoate [Compound 8a]",TC50,[1],277.10 µM
same,IC50,[2],44.4 µM
same,IC50,[3],83.7 µM
"COC(=O)c1c(F)cccc1O[C@@H]1O[C@H](COC(C)=O)[C@H](OC(C)=O)[C@H](OC(C)=O)[C@H]1OC(C)=O [Compound 9b, Methyl 2-fluoro-6-((2S,3R,4S,5S,6R)-3,4,5-triacetoxy-6-(acetoxymethyl)-tetrahydro-2H-pyran-2-yloxy)benzoate]",IC50,[5],> 133 µM
same,IC50,"[2]; Influenza A virus, H3N2, MDCK",> 133 µM
same,IC50,"[3]; Influenza A virus, H1N1, MDCK",66.6 µM
same,melting point,,130 to 132 °C
"CC(=O)OCc1ccc(F)c(O[C@@H]2O[C@H](COC(C)=O)[C@@H](OC(C)=O)[C@H](OC(C)=O)[C@H]2OC(C)=O)c1 [Compound 13a, (2R,3R,4S,5R,6S)-2-(Acetoxymethyl)-6-(5-(acetoxymethyl)-2-fluorophenoxy)-tetrahydro-2H-pyran-3,4,5-triyl triacetate]",IC50,"[2]; Influenza A virus, H3N2, MDCK",> 130 µM
same,IC50,"[3]; Influenza A virus, H1N1, MDCK",> 130 µM
"COC(=O)c1ccc(F)c(O)c1 [Compound 1, Methyl 4-fluoro-3-hydroxybenzoate]",TC50,[1],>1175.50 µM
same,IC50 A/Hanfang/359/95,[2],no activity
same,IC50,"[2]; Influenza A virus, H3N2, MDCK",> 1180 µM
same,IC50 A/FM/1/47,[3],no activity
same,IC50,"[3]; Influenza A virus, H1N1, MDCK",> 392 µM
"COC(=O)c1ccc(F)c(O[C@@H]2O[C@H](COC(C)=O)[C@H](OC(C)=O)[C@H](OC(C)=O)[C@H]2OC(C)=O)c1 [Compound 1b, Methyl 4-fluoro-3-((2S,3R,4S,5S,6R)-3,4,5-triacetoxy-6-(acetoxymethyl)-tetrahydro-2H-pyran-2-yloxy)benzoate]",IC50,"[2]; Influenza A virus, H3N2, MDCK",92.4 µM
same,IC50,"[3]; Influenza A virus, H1N1, MDCK",> 133 µM
"COC(=O)c1ccc(O[C@@H]2O[C@H](COC(C)=O)[C@@H](OC(C)=O)[C@H](OC(C)=O)[C@H]2OC(C)=O)c(F)c1 [Compound 7a, Methyl 3-fluoro-4-((2S,3R,4S,5R,6R)-3,4,5-triacetoxy-6-(acetoxymethyl)-tetrahydro-2H-pyran-2-yloxy)benzoate]",IC50,"[2]; Influenza A virus, H3N2, MDCK",103 µM
same,IC50,"[3]; Influenza A virus, H1N1, MDCK",> 133 µM
same,melting point,,121 to 123 °C
"CCOC(=O)C1=C[C@@H](OC(CC)CC)[C@H](NC(C)=O)[C@@H](N)C1 [Oseltamivir, reference compound]",effect on influenza virus M2 protein expression,[4],has inhibitory effect
same,IC50,[5],> 100 µM
same,IC50,"[2]; Influenza A virus, H3N2, MDCK",2.08 µM
same,IC50,"[3]; Influenza A virus, H1N1, MDCK",57.5 µM
"CC(=O)OC[C@H]1O[C@@H](Oc2cccc(F)c2C)[C@H](OC(C)=O)[C@@H](OC(C)=O)[C@H]1OC(C)=O [Compound 10b, (2R,3S,4S,5R,6S)-2-(Acetoxymethyl)-6-(3-fluoro-2-methylphenoxy)-tetrahydro-2H-pyran-3,4,5-triyl triacetate]",IC50,[5],39.4 µM
same,IC50,"[2]; Influenza A virus, H3N2, MDCK",48.7 µM
same,IC50,"[3]; Influenza A virus, H1N1, MDCK",> 52.2 µM
same,melting point,,127 to 129 °C
